Where two headings read alike, the source gives them in different places.
System: panel of nearly 500 cancer cell lines
Assay: Cancer Cell Line Encyclopedia profiling, 3-day CellTiter-Glo
Format: cell-based
Settings: read-out: IC50

CC(=O)c1c(C)c2cnc(Nc3ccc(N4CCNCC4)cn3)nc2n(C2CCCC2)c1=O [Palbociblib] gave an IC50 (loximvi (skin)) greater than 8 µM, an IC50 (ls123 (large_intestine)) greater than 8 µM and an IC50 (ls513 (large_intestine)) of 4.53 µM. It also gave an IC50 (lu99 (lung)) of 2.55 µM, an IC50 (ludlu1 (lung)) greater than 8 µM and an IC50 (m059j (central_nervous_system)) greater than 8 µM. The IC50 (malme3m (skin)) was greater than 8 µM, the IC50 (mc116 (haematopoietic_and_lymphoid_tissue)) was 8 µM and the IC50 (mcas (ovary)) was greater than 8 µM. It also gave an IC50 (mcf7 (breast)) greater than 8 µM, an IC50 (mdamb157 (breast)) greater than 8 µM and an IC50 (mdamb175vii (breast)) greater than 8 µM. For the same compound, the IC50 (mdamb415 (breast)) was 6.74 µM, the IC50 (mdamb436 (breast)) was greater than 8 µM and the IC50 (mdamb453 (breast)) was greater than 8 µM. The IC50 (mdamb468 (breast)) was greater than 8 µM, the IC50 (meg01 (haematopoietic_and_lymphoid_tissue)) was greater than 8 µM and the IC50 (melho (skin)) was greater than 8 µM. For the same compound, the IC50 (messa (soft_tissue)) was greater than 8 µM, the IC50 (mfe280 (endometrium)) was greater than 8 µM and the IC50 (mg63 (bone)) was greater than 8 µM. It also gave an IC50 (miapaca2 (pancreas)) greater than 8 µM, an IC50 (mino (haematopoietic_and_lymphoid_tissue)) of 1.4 µM and an IC50 (mj (haematopoietic_and_lymphoid_tissue)) of 4.62 µM. The IC50 (mkn7 (stomach)) was greater than 8 µM, the IC50 (mkn45 (stomach)) was greater than 8 µM and the IC50 (mkn74 (stomach)) was greater than 8 µM. For the same compound, the IC50 (moggccm (central_nervous_system)) was greater than 8 µM, the IC50 (mpp89 (pleura)) was greater than 8 µM and the IC50 (msto211h (pleura)) was 5.5 µM. The IC50 (ncih23 (lung)) was greater than 8 µM, the IC50 (ncih28 (pleura)) was 6.05 µM and the IC50 (ncih211 (lung)) was greater than 8 µM. It also gave an IC50 (ncih226 (lung)) greater than 8 µM, an IC50 (ncih322 (lung)) greater than 8 µM and an IC50 (ncih358 (lung)) greater than 8 µM. For the same compound, the IC50 (ncih441 (lung)) was greater than 8 µM, the IC50 (ncih520 (lung)) was greater than 8 µM and the IC50 (ncih522 (lung)) was greater than 8 µM. It also gave an IC50 (ncih647 (lung)) greater than 8 µM, an IC50 (ncih650 (lung)) greater than 8 µM and an IC50 (ncih661 (lung)) greater than 8 µM. The IC50 (ncih727 (lung)) was greater than 8 µM, the IC50 (ncih747 (large_intestine)) was greater than 8 µM and the IC50 (ncih810 (lung)) was greater than 8 µM. For the same compound, the IC50 (ncih1048 (lung)) was greater than 8 µM, the IC50 (ncih1092 (lung)) was greater than 8 µM and the IC50 (ncih1184 (lung)) was greater than 8 µM. The IC50 (ncih1341 (lung)) was greater than 8 µM, the IC50 (ncih1355 (lung)) was greater than 8 µM and the IC50 (ncih1373 (lung)) was greater than 8 µM. It also gave an IC50 (ncih1563 (lung)) greater than 8 µM, an IC50 (ncih1568 (lung)) greater than 8 µM and an IC50 (ncih1573 (lung)) greater than 8 µM. For the same compound, the IC50 (ncih1581 (lung)) was greater than 8 µM, the IC50 (ncih1648 (lung)) was greater than 8 µM and the IC50 (ncih1650 (lung)) was greater than 8 µM. It also gave an IC50 (ncih1651 (lung)) greater than 8 µM, an IC50 (ncih1666 (lung)) greater than 8 µM and an IC50 (ncih1693 (lung)) greater than 8 µM. It also gave an IC50 (ncih1694 (lung)) greater than 8 µM, an IC50 (ncih1792 (lung)) greater than 8 µM and an IC50 (ncih1793 (lung)) of 2.04 µM. For the same compound, the IC50 (ncih1869 (lung)) was greater than 8 µM, the IC50 (ncih1915 (lung)) was greater than 8 µM and the IC50 (ncih1944 (lung)) was 4.49 µM. For the same compound, the IC50 (ncih1975 (lung)) was greater than 8 µM, the IC50 (ncih2009 (lung)) was greater than 8 µM and the IC50 (ncih2023 (lung)) was greater than 8 µM. The IC50 (ncih2030 (lung)) was greater than 8 µM, the IC50 (ncih2052 (pleura)) was greater than 8 µM and the IC50 (ncih2085 (lung)) was greater than 8 µM. The IC50 (ncih2087 (lung)) was greater than 8 µM, the IC50 (ncih2122 (lung)) was greater than 8 µM and the IC50 (ncih2170 (lung)) was greater than 8 µM. For the same compound, the IC50 (ncih2172 (lung)) was greater than 8 µM, the IC50 (ncih2228 (lung)) was greater than 8 µM and the IC50 (ncih2444 (lung)) was 6.71 µM. The IC50 (ncih2452 (pleura)) was greater than 8 µM, the IC50 (ncih3255 (lung)) was greater than 8 µM and the IC50 (ncin87 (stomach)) was greater than 8 µM. It also gave an IC50 (nihovcar3 (ovary)) greater than 8 µM, an IC50 (nugc3 (stomach)) greater than 8 µM and an IC50 (nugc4 (stomach)) of 1.61 µM. It also gave an IC50 (oc314 (ovary)) greater than 8 µM, an IC50 (oc315 (ovary)) greater than 8 µM and an IC50 (oc316 (ovary)) greater than 8 µM. It also gave an IC50 (ociaml2 (haematopoietic_and_lymphoid_tissue)) of 1.53 µM, an IC50 (ocum1 (stomach)) greater than 8 µM and an IC50 (oe21 (oesophagus)) of 4.75 µM. For the same compound, the IC50 (oe33 (oesophagus)) was greater than 8 µM, the IC50 (oncodg1 (ovary)) was greater than 8 µM and the IC50 (ons76 (central_nervous_system)) was greater than 8 µM. For the same compound, the IC50 (ov90 (ovary)) was greater than 8 µM, the IC50 (ovcar4 (ovary)) was greater than 8 µM and the IC50 (ovcar8 (ovary)) was greater than 8 µM. The IC50 (ovmana (ovary)) was greater than 8 µM, the IC50 (ovsaho (ovary)) was greater than 8 µM and the IC50 (ovtoko (ovary)) was greater than 8 µM. The IC50 (p3hr1 (haematopoietic_and_lymphoid_tissue)) was 7.56 µM, the IC50 (p31fuj (haematopoietic_and_lymphoid_tissue)) was greater than 8 µM and the IC50 (panc0203 (pancreas)) was greater than 8 µM. The IC50 (panc0327 (pancreas)) was greater than 8 µM, the IC50 (panc0403 (pancreas)) was greater than 8 µM and the IC50 (panc1005 (pancreas)) was greater than 8 µM. It also gave an IC50 (pc3 (prostate)) greater than 8 µM, an IC50 (pfeiffer (haematopoietic_and_lymphoid_tissue)) of 6.95 µM and an IC50 (pk1 (pancreas)) greater than 8 µM. For the same compound, the IC50 (pk59 (pancreas)) was greater than 8 µM, the IC50 (pk45h (pancreas)) was greater than 8 µM and the IC50 (pl45 (pancreas)) was greater than 8 µM. For the same compound, the IC50 (plcprf5 (liver)) was greater than 8 µM, the IC50 (raji (haematopoietic_and_lymphoid_tissue)) was greater than 8 µM and the IC50 (rd (soft_tissue)) was greater than 8 µM. For the same compound, the IC50 (reh (haematopoietic_and_lymphoid_tissue)) was 5.91 µM, the IC50 (rerfgc1b (stomach)) was greater than 8 µM and the IC50 (rerflcai (lung)) was greater than 8 µM. The IC50 (rerflcms (lung)) was greater than 8 µM, the IC50 (rkn (soft_tissue)) was greater than 8 µM and the IC50 (rko (large_intestine)) was greater than 8 µM. The IC50 (rl952 (endometrium)) was greater than 8 µM, the IC50 (rt4 (urinary_tract)) was greater than 8 µM and the IC50 (rt112 (urinary_tract)) was greater than 8 µM. It also gave an IC50 (rvh421 (skin)) greater than 8 µM, an IC50 (saos2 (bone)) greater than 8 µM and an IC50 (sbc5 (lung)) greater than 8 µM. The IC50 (scaber (urinary_tract)) was greater than 8 µM, the IC50 (scc25 (upper_aerodigestive_tract)) was greater than 8 µM and the IC50 (sf126 (central_nervous_system)) was greater than 8 µM. For the same compound, the IC50 (sf295 (central_nervous_system)) was greater than 8 µM, the IC50 (sf8657 (skin)) was greater than 8 µM and the IC50 (sh10tc (stomach)) was greater than 8 µM. For the same compound, the IC50 (shp77 (lung)) was greater than 8 µM, the IC50 (sjrh30 (soft_tissue)) was greater than 8 µM and the IC50 (sjsa1 (bone)) was greater than 8 µM. The IC50 (skbr3 (breast)) was greater than 8 µM, the IC50 (skco1 (large_intestine)) was greater than 8 µM and the IC50 (skes1 (bone)) was greater than 8 µM. For the same compound, the IC50 (skhep1 (liver)) was greater than 8 µM, the IC50 (sklu1 (lung)) was greater than 8 µM and the IC50 (skmel2 (skin)) was greater than 8 µM. The IC50 (skmel5 (skin)) was greater than 8 µM, the IC50 (skmel24 (skin)) was greater than 8 µM and the IC50 (skmel30 (skin)) was greater than 8 µM. It also gave an IC50 (skmel31 (skin)) greater than 8 µM, an IC50 (skmm2 (haematopoietic_and_lymphoid_tissue)) greater than 8 µM and an IC50 (sknas (autonomic_ganglia)) greater than 8 µM. It also gave an IC50 (sknbe2 (autonomic_ganglia)) of 4.99 µM, an IC50 (skndz (autonomic_ganglia)) greater than 8 µM and an IC50 (sknsh (autonomic_ganglia)) greater than 8 µM. The IC50 (skov3 (ovary)) was greater than 8 µM, the IC50 (sngm (endometrium)) was greater than 8 µM and the IC50 (snu1 (stomach)) was 5.73 µM. For the same compound, the IC50 (snu16 (stomach)) was greater than 8 µM, the IC50 (snu182 (liver)) was greater than 8 µM and the IC50 (snu423 (liver)) was greater than 8 µM. For the same compound, the IC50 (snu449 (liver)) was greater than 8 µM, the IC50 (snuc2a (large_intestine)) was greater than 8 µM and the IC50 (snuc2b (large_intestine)) was greater than 8 µM. It also gave an IC50 (su8686 (pancreas)) greater than 8 µM, an IC50 (sudhl8 (haematopoietic_and_lymphoid_tissue)) of 1.21 µM and an IC50 (sudhl10 (haematopoietic_and_lymphoid_tissue)) of 3.42 µM. It also gave an IC50 (suit2 (pancreas)) greater than 8 µM, an IC50 (supm2 (haematopoietic_and_lymphoid_tissue)) of 5.92 µM and an IC50 (supt1 (haematopoietic_and_lymphoid_tissue)) greater than 8 µM. It also gave an IC50 (sw48 (large_intestine)) greater than 8 µM, an IC50 (sw403 (large_intestine)) greater than 8 µM and an IC50 (sw480 (large_intestine)) greater than 8 µM. It also gave an IC50 (sw579 (thyroid)) greater than 8 µM, an IC50 (sw620 (large_intestine)) greater than 8 µM and an IC50 (sw780 (urinary_tract)) of 1.64 µM. It also gave an IC50 (sw900 (lung)) greater than 8 µM, an IC50 (sw1271 (lung)) greater than 8 µM and an IC50 (sw1353 (bone)) greater than 8 µM. It also gave an IC50 (sw1417 (large_intestine)) greater than 8 µM, an IC50 (sw1990 (pancreas)) greater than 8 µM and an IC50 (t3m10 (lung)) greater than 8 µM. It also gave an IC50 (t24 (urinary_tract)) greater than 8 µM, an IC50 (t84 (large_intestine)) greater than 8 µM and an IC50 (t98g (central_nervous_system)) greater than 8 µM. For the same compound, the IC50 (t47d (breast)) was greater than 8 µM, the IC50 (tc71 (bone)) was greater than 8 µM and the IC50 (tccsup (urinary_tract)) was greater than 8 µM. The IC50 (te9 (oesophagus)) was greater than 8 µM, the IC50 (te617t (soft_tissue)) was 1.01 µM and the IC50 (ten (endometrium)) was greater than 8 µM. The IC50 (toledo (haematopoietic_and_lymphoid_tissue)) was greater than 8 µM, the IC50 (tov21g (ovary)) was greater than 8 µM and the IC50 (tov112d (ovary)) was greater than 8 µM.

Reference: paper PMC6219668 (Oncotarget, 2018)
